Laboratory results: ChEMBL document CHEMBL3425467, “Synthesis, cytotoxicity and haemolytic activity of Pulsatilla saponin A, D derivatives” (Bioorg Med Chem Lett, 2015)

What was measured:
[1] = Induction of hemolysis in erythrocytes (unknown origin); format: cell-based, Erythrocyte; conditions: read-out: HD50 (the source's name)
A549 = assay: Cytotoxicity against human A549 cells assessed as inhibition of cell growth after 24 hrs by MTT assay; format: functional, cell-based; conditions: A549, 24 h
[2] = Cytotoxicity against human Bel7402 cells assessed as inhibition of cell growth after 24 hrs by MTT assay; format: functional, cell-based; conditions: Bel-7402, 24 h
SMMC-7721 = assay: Cytotoxicity against human SMMC7721 cells assessed as inhibition of cell growth after 24 hrs by MTT assay; format: functional, cell-based; conditions: SMMC-7721, 24 h
[3] = Cytotoxicity against human HL7702 cells assessed as inhibition of cell growth after 24 hrs by MTT assay; format: cell-based; conditions: L02, 24 h
[4] = Hemolytic activity in rabbit RBC assessed as induction of hemolysis; format: cell-based, Oryctolagus cuniculus, Erythrocyte; conditions: red blood cells, read-out: HD50 (the source's name)
[5] = Ratio of hemolytic HD50 for PSD to hemolytic HD50 for compound in rabbit RBC; format: ADME, cell-based, Oryctolagus cuniculus; conditions: erythrocyte
Mus musculus [6] = assay: Toxicity in mouse assessed as induction of induction of death at 0.1 mL/10 g, iv; format: organism-based; conditions: in vivo
Mus musculus [7] = assay: Toxicity in mouse assessed as induction of hematuria at 0.1 mL/10 g, iv; format: organism-based; conditions: in vivo
[8] = Toxicity in iv dosed mouse assessed as tolerance dose; format: organism-based; conditions: in vivo
Mus musculus [9] = assay: Toxicity in mouse assessed as death time at 0.1 mL/10 g, iv; format: organism-based; conditions: in vivo

SMILES | HC50 [1] [µM] | IC50 (A549) [µM] | IC50 [2] [µM] | IC50 (SMMC-7721) [µM] | IC50 [3] [µM] | HC50 [4] [µM] | Ratio [5] | Activity (Mus musculus [6]) | Activity (Mus musculus [7]) | MTD [8] [mg/kg] | Time (Mus musculus [9]) [min]
C[C@@H]1O[C@@H](O[C@H]2[C@H](O[C@H]3CC[C@@]4(C)[C@@H](CC[C@]5(C)[C@@H]4CC=C4[C@@H]6CC(C)(C)CC[C@]6(C(=O)O)CC[C@]45C)[C@]3(C)CO)OC[C@H](O[C@@H]3O[C@H](CO)[C@@H](O)[C@H](O)[C@H]3O)[C@@H]2O)[C@H](O)[C@H](O)[C@H]1O [HEDERACOLCHISIDE A] | 22 | 6.3 | 8.9 | 7.6 | 12.6 | 6.3 | – | – | – | – | –
C[C@@H]1O[C@@H](O[C@H]2[C@H](O[C@H]3CC[C@@]4(C)[C@@H](CC[C@]5(C)[C@@H]4CC=C4[C@@H]6CC(C)(C)CC[C@]6(C(=O)N[C@H](CO)C(=O)O)CC[C@]45C)[C@]3(C)CO)OC[C@H](O[C@@H]3O[C@H](CO)[C@@H](O)[C@H](O)[C@H]3O)[C@@H]2O)[C@H](O)[C@H](O)[C@H]1O | – | 72.3 | 93.1 | > 100 | > 100 | 60.3 | 20 | – | – | – | –
C[C@@H]1O[C@@H](O[C@H]2[C@H](O[C@H]3CC[C@@]4(C)[C@@H](CC[C@]5(C)[C@@H]4CC=C4[C@@H]6CC(C)(C)CC[C@]6(C(=O)[O-])CC[C@]45C)[C@]3(C)CO)OC[C@H](O[C@@H]3O[C@H](CO)[C@@H](O)[C@H](O)[C@H]3O)[C@@H]2O)[C@H](O)[C@H](O)[C@H]1O.[Na+] | – | – | – | – | – | – | – | Toxic | Toxic | 10 | < 60
C[C@@H]1O[C@@H](O[C@H]2[C@H](O[C@H]3CC[C@@]4(C)[C@@H](CC[C@]5(C)[C@@H]4CC=C4[C@@H]6CC(C)(C)CC[C@]6(C(=O)N6CCC[C@H]6C(=O)O)CC[C@]45C)[C@]3(C)CO)OC[C@H](O[C@@H]3O[C@H](CO)[C@@H](O)[C@H](O)[C@H]3O)[C@@H]2O)[C@H](O)[C@H](O)[C@H]1O | – | 71.1 | 97.8 | 46.8 | > 100 | 326 | 20 | – | – | – | –
C[C@@H]1O[C@@H](O[C@H]2[C@H](O[C@H]3CC[C@@]4(C)[C@@H](CC[C@]5(C)[C@@H]4CC=C4[C@@H]6CC(C)(C)CC[C@]6(C(=O)[O-])CC[C@]45C)[C@]3(C)CO)OC[C@H](O)[C@@H]2O)[C@H](O)[C@H](O)[C@H]1O.[Na+] | – | – | – | – | – | – | – | Toxic | Toxic | 10 | < 60
C[C@@H]1O[C@@H](O[C@H]2[C@H](O[C@H]3CC[C@@]4(C)[C@@H](CC[C@]5(C)[C@@H]4CC=C4[C@@H]6CC(C)(C)CC[C@]6(C(=O)NCC(=O)[O-])CC[C@]45C)[C@]3(C)CO)OC[C@H](O)[C@@H]2O)[C@H](O)[C@H](O)[C@H]1O.[Na+] | – | – | – | – | – | – | – | Non-toxic | Non-toxic | > 160 | > 20200
C[C@@H]1O[C@@H](O[C@H]2[C@H](O[C@H]3CC[C@@]4(C)[C@@H](CC[C@]5(C)[C@@H]4CC=C4[C@@H]6CC(C)(C)CC[C@]6(C(=O)N6CCN(CCC(=O)O)CC6)CC[C@]45C)[C@]3(C)CO)OC[C@H](O[C@@H]3O[C@H](CO)[C@@H](O)[C@H](O)[C@H]3O)[C@@H]2O)[C@H](O)[C@H](O)[C@H]1O | – | 1.9 | 9.8 | 14.5 | 1.3 | 119 | 20 | – | – | – | –
C[C@@H]1O[C@@H](O[C@H]2[C@H](O[C@H]3CC[C@@]4(C)[C@@H](CC[C@]5(C)[C@@H]4CC=C4[C@@H]6CC(C)(C)CC[C@]6(C(=O)NCC(=O)[O-])CC[C@]45C)[C@]3(C)CO)OC[C@H](O[C@@H]3O[C@H](CO)[C@@H](O)[C@H](O)[C@H]3O)[C@@H]2O)[C@H](O)[C@H](O)[C@H]1O.[Na+] | – | – | – | – | – | – | – | Non-toxic | Non-toxic | > 160 | > 20200
C[C@@H]1O[C@@H](O[C@H]2[C@H](O[C@H]3CC[C@@]4(C)[C@@H](CC[C@]5(C)[C@@H]4CC=C4[C@@H]6CC(C)(C)CC[C@]6(C(=O)NCC(=O)O)CC[C@]45C)[C@]3(C)CO)OC[C@H](O[C@@H]3O[C@H](CO)[C@@H](O)[C@H](O)[C@H]3O)[C@@H]2O)[C@H](O)[C@H](O)[C@H]1O | – | 5.7 | 4.3 | 1.6 | 1.5 | 160 | 20 | – | – | – | –
C[C@@H]1O[C@@H](O[C@H]2[C@H](O[C@H]3CC[C@@]4(C)[C@@H](CC[C@]5(C)[C@@H]4CC=C4[C@@H]6CC(C)(C)CC[C@]6(C(=O)O)CC[C@]45C)[C@]3(C)CO)OC[C@H](O)[C@@H]2O)[C@H](O)[C@H](O)[C@H]1O [ALPHA-HEDERIN] | 10 | 15.3 | 13.2 | 10.8 | 11.5 | 7.5 | – | – | – | – | –
